Literature values in patent US20250235427A1, “5-METHOXY-N,N-[…][…] THE TREATMENT OF SOCIAL/EMOTIONAL […] DETACHMENT” (GH RESEARCH IRELAND LIMITED, priority 2022, published 2025).

Tested on: patients with treatment resistant bipolar depression
Conditions: single 0.5·mg·kg^1 infusion; cited from earlier work

Q: What does the source list for `CNC1(c2ccccc2Cl)CCCCC1=O` (centres unmarked) [ketamine]?
A: duration of anti-anhedonic effect: up to 14 days; time to decrease of anhedonia (effect onset): ≤ 40 min
